The term IC50 denotes the concentration at which inhibition is half-maximal. A high value points to weaker potency in that assay.

The test deals with T1, FLAG-tagged full length PHD2 (Homo sapiens, UniProt Q9GZT9).
T1 construct: FLAG-tagged full length PHD2; FLAG; made in house; host or cells: baculovirus-infected Sf9 cells
T1 sequence (Q9GZT9 whole entry): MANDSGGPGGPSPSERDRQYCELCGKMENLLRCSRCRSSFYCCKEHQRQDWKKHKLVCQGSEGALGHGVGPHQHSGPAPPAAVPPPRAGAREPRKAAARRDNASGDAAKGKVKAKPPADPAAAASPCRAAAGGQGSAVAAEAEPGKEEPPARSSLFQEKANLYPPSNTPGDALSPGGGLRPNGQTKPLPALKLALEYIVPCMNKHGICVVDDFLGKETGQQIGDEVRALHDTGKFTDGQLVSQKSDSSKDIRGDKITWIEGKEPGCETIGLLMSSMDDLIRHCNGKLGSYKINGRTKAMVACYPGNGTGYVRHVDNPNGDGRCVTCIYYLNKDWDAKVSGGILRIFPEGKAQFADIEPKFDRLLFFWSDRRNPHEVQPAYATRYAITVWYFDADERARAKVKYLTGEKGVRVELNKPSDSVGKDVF
Put plainly: HIF-PHD2 time resolved fluorescence inhibition assay (HIF-1α peptide hydroxylation, VHL complex detection). To be noted: 0.2 μM 2-oxoglutarate, 0.5 μM HIF-1α peptide, 2 hr at room temperature. Format: biochemical. As to the method: To each well of a 96-well plate was added […] of test compound in DMSO and 20 μl of assay buffer (50 mM Tris pH 7.4/0.01% Tween-20/0.1 mg/ml bovine serum albumin/10 μM ferrous sulfate/1 mM sodium ascorbate/20 μg/ml catalase) containing 0.15 μg/ml FLAG-tagged full length PHD2 expressed in and purified from baculovirus-infected Sf9 cells. After a […] preincubation at room temperature, the enzymatic reactions were initiated by the addition of 4 μL of substrates (final concentrations of 0.2 μM 2-oxoglutarate and 0.5 μM HIF-1α peptide biotinyl-DLDLEMLAPYIPMDDDFQL). After 2 hr at room temperature, the reactions were terminated and signals were developed by the addition of a 25 μL quench/detection mix to a final concentration of 1 mM ortho-phenanthroline, 0.1 mM EDTA, 0.5 nM anti-(His)6 LANCE reagent (Perkin-Elmer Life Sciences), 100 nM AF647-labeled streptavidin (Invitrogen), and 2 μg/ml (His)6-VHL complex (S. Tan (2001) Protein Expr. Purif. 21, 224-234). The ratio of time resolved fluorescence signals at 665 and 620 nm was determined, and percent inhibition was calculated relative to an uninhibited control sample run in parallel.
With `O=C(O)C[C@H](NC(=O)c1c(O)c2cccnc2n(Cc2ccc(C(F)(F)F)cc2)c1=O)C(=O)O` [Example 15, N-({1-[4-(trifluoromethyl)benzyl]-4-hydroxy-2-oxo-1,2-dihydro-1,8-naphthyridin-3-yl}carbonyl)-L-aspartic acid], the IC50 amounted to 25 nM. Under `CC[C@H](NC(=O)c1c(O)c2cccnc2n(Cc2ccc(C(F)(F)F)cc2)c1=O)C(=O)O` [Example 17, (2S)-2-[({4-Hydroxy-2-oxo-1-[4-(trifluoromethyl)benzyl]-1,2-dihydro-1,8-naphthyridin-3-yl}carbonyl)amino]butanoic acid] stands 160 nM; under `C#CCn1c(=O)c(C(=O)NCC(=O)O)c(O)c2cccnc21` [Example 18, N-[(4-Hydroxy-2-oxo-1-prop-2-yn-1-yl-1,2-dihydro-1,8-naphthyridin-3-yl)carbonyl]glycine], 21 nM; under `O=C(O)CNC(=O)c1c(O)c2cccnc2n(Cc2cc(-c3ccccc3)no2)c1=O` [Example 19, N-({4-Hydroxy-2-oxo-1-[(3-phenylisoxazol-5-yl)methyl]-1,2-dihydro-1,8-naphthyridin-3-yl}carbonyl)glycine], 0.4 nM. Under `O=C(O)CNC(=O)c1c(O)c2cccnc2n(Cc2noc(-c3ccccc3)n2)c1=O` [Example 20, N-({4-Hydroxy-2-oxo-1-[(5-phenyl-1,2,4-oxadiazol-3-yl)methyl]-1,2-dihydro-1,8-naphthyridin-3-yl}carbonyl)glycine] stands 0.9 nM.

On to `O=C(O)CNC(=O)c1c(O)c2cccnc2n(Cc2nc(-c3ccccc3)no2)c1=O` [Example 21, N-({4-Hydroxy-2-oxo-1-[(3-phenyl-1,2,4-oxadiazol-5-yl)methyl]-1,2-dihydro-1,8-naphthyridin-3-yl}carbonyl)glycine], for which the IC50 was 0.8 nM. Under `O=C(O)CNC(=O)c1c(O)c2cccnc2n(Cc2nc(-c3ccccc3)cs2)c1=O` [Example 22, N-({4-Hydroxy-2-oxo-1-[(4-phenyl-1,3-thiazol-2-yl)methyl]-1,2-dihydro-1,8-naphthyridin-3-yl}carbonyl)glycine] stands 0.8 nM.

`CCOC(=O)Cn1c(=O)c(C(=O)NCC(=O)O)c(O)c2cccnc21` [Example 23, N-{[1-(2-Ethoxy-2-oxoethyl)-4-hydroxy-2-oxo-1,2-dihydro-1,8-naphthyridin-3-yl]carbonyl}glycine] returned a half-inhibitory concentration (IC50) of 8.5 nM.

With `O=C(O)CNC(=O)c1c(O)c2cccnc2n(Cc2nc3cc(Cl)ccc3s2)c1=O` [Example 24, N-({1-[(5-Chloro-1,3-benzothiazol-2-yl)methyl]-4-hydroxy-2-oxo-1,2-dihydro-1,8-naphthyridin-3-yl}carbonyl)glycine], inhibition was half-maximal at 1.1 nM (IC50). Under `CC(C)(C)c1csc(Cn2c(=O)c(C(=O)NCC(=O)O)c(O)c3cccnc32)n1` [Example 25, N-({1-[(4-tert-Butyl-1,3-thiazol-2-yl)methyl]-4-hydroxy-2-oxo-1,2-dihydro-1,8-naphthyridin-3-yl}carbonyl)glycine] stands 2 nM.

`Cc1nc(Cn2c(=O)c(C(=O)NCC(=O)O)c(O)c3cccnc32)sc1C` [Example 26, N-({1-[(4,5-Dimethyl-1,3-thiazol-2-yl)methyl]-4-hydroxy-2-oxo-1,2-dihydro-1,8-naphthyridin-3-yl}carbonyl)glycine] yielded an IC50 of 1.3 nM. Under `O=C(O)CNC(=O)c1c(O)c2cccnc2n(Cc2nnc(-c3ccccc3)o2)c1=O` [Example 27, N-({4-Hydroxy-2-oxo-1-[(5-phenyl-1,3,4-oxadiazol-2-yl)methyl]-1,2-dihydro-1,8-naphthyridin-3-yl}carbonyl)glycine] stands 2.6 nM.

`O=C(O)CNC(=O)c1c(O)c2cccnc2n(Cc2ccc(C(F)(F)F)nc2)c1=O` [Example 28, {[(4-Hydroxy-2-oxo-1-{[6-(trifluoromethyl)pyridin-3-yl]methyl}-1,2-dihydro-1,8 naphthyridin-3-yl)carbonyl}amino}acetic acid]: the IC50 came out at 0.85 nM. In turn, `O=C(O)CNC(=O)c1c(O)c2cc(Cl)cnc2n(Cc2ccc(C(F)(F)F)nc2)c1=O` [Example 29, {[(6-Chloro-4-hydroxy-2-oxo-1-{[6-(trifluoromethyl)pyridin-3-yl]methyl}-1,2-dihydro-1,8 naphthyridin-3-yl)carbonyl]amino}acetic acid] showed an IC50 of 0.65 nM. Under `C[C@H](NC(=O)c1c(O)c2cccnc2n(Cc2nc3ccccc3s2)c1=O)C(=O)O` [Example 30, (2S)-2-({[1-(1,3-Benzothiazol-2-ylmethyl)-4-hydroxy-2-oxo-1,2-dihydro-1,8-naphthyridin-3-yl]carbonyl}amino)propanoic acid] stands 2.7 nM. In the case of `C[C@H](NC(=O)c1c(O)c2cccnc2n(Cc2nc3cc(Cl)ccc3s2)c1=O)C(=O)O` [Example 35, (2S)-2-[({1-[(5-Chloro-1,3-benzothiazol-2-yl)methyl]-4-hydroxy-2-oxo-1,2-dihydro-1,8-naphthyridin-3-yl}carbonyl)amino]propanoic acid], the IC50 turned out to be 5.9 nM. In turn, `C[C@H](NC(=O)c1c(O)c2cccnc2n(Cc2ccc(C(F)(F)F)nc2)c1=O)C(=O)O` [Example 38, (2S)-2-{[(4-Hydroxy-2-oxo-1-{[6-(trifluoromethyl)pyridin-3-yl]methyl}-1,2-dihydro-1,8-naphthyridin-3-yl)carbonyl]amino}propanoic acid] had an IC50 of 2.7 nM.

As to `C[C@H](NC(=O)c1c(O)c2cccnc2n(Cc2ccc(C(F)(F)F)cc2F)c1=O)C(=O)O` [Example 39, (2S)-2-[({1-[2-Fluoro-4-(trifluoromethyl)benzyl]-4-hydroxy-2-oxo-1,2-dihydro-1,8-naphthyridin-3-yl}carbonyl)amino]propanoic acid], half-maximal inhibition (IC50) required 8.2 nM. With `O=C(O)CNC(=O)c1c(O)c2cc(Cl)cnc2n(Cc2nc3ccccc3s2)c1=O` [Example 40, ({[1-(1,3-Benzothiazol-2-ylmethyl)-6-chloro-4-hydroxy-2-oxo-1,2-dihydro-1,8-naphthyridin-3-yl]carbonyl}amino)acetic acid] the figure was 1.5 nM.

The values above are taken from patent publication US20100056563A1, “NOVEL 1.8-NAPHTHYRIDINE COMPOUNDS” (priority 2007, published 2010).
